# Reference: patent US5723491A, “Fungicidal composition and method of controlling fungus infestation” (Novartis Corporation, priority 1994, dated 1998)
# “And” between values parts separate entries of the source, which are not always exact repeats. Equal values may be shown once. Read-outs that look alike come from different tables or passages of the source.
# Experiments:
# [1] = cited from earlier work
# [2] = Degradation behaviour in sandy soil under laboratory conditions; design: degradation equation Ct, rate constant in exponent: unit: 1/day; details: sand; for degradation equation Ct, pre-exponential factor / degradation equation Ct, rate constant in exponent: first-order fit; for degradation equation Ct, rate constant in exponent: e^(-k*t); for DT-50 (50% degradation) / DT-90 (90% degradation): from degradation curve FIG. 2
# Description: Degradation Behaviour of Racemic Metalaxyl and R-metalaxyl in Sandy Soil
# Two groups of 16 samples each of biologically active soil (sandy soil; loam: 5.1%; silt: 11.4%; sand: 83.5%; organic carbon: 1.6%; pH 4; biomass: 51 mg microbial carbon/100 g soil; origin: Collombey, Valais, Switzerland)are treated in parallel with racemic metalaxyl or R-metalaxyl, respectively, in each case in acetonic solution. The rate of application is 0.5 mg/kg of soil sample, which corresponds to a rate of application of 0.5 kg/hectare. The results are evaluated in duplicate after 0, 1, 3, 7, 9, 15, 21 and 29 days.
# [3] = Degradation behaviour in moderately heavy soil (silt/loam) under laboratory conditions; details: for degradation equation Ct, pre-exponential factor: first-order fit; for DT-50 (50% degradation) / DT-90 (90% degradation): from degradation curve FIG. 1
# Description: Degradation Behaviour of Racemic Metalaxyl and R-metalaxyl in Moderately Heavy Soil
# Two groups of 8 samples each of biologically active soil (silt/loam; loam: 13.9%; silt: 54.3%; sand: 31.8%; organic carbon: 2.1%; pH 7.3; biomass: 65.1 mg microbial carbon per 100 g soil; origin: Les Evouettes, Valais, Switzerland) are treated in parallel with racemic metalaxyl or R-metalaxyl, respectively, in each case in acetonic solution. The rate of application is 0.5 mg/kg of soil sample, which corresponds to a rate of application of 0.5 kg/hectare. The results are evaluated in duplicate after 0, 7, 14 and 21 days.
# [4] = test system: metalaxyl-sensitive strain of Plasmopara viticola; test: Foliar spray on vine plantlets infected with Plasmopara viticola (two-leaf and three-leaf stage sprayings); format: in vivo
# Description: Vine plantlets cv. "Gutedel" are grown under greenhouse conditions using one plant per pot (.O slashed.=6 cm) and sprayed with a spray broth prepared from an emulsion concentrate, either in the two-leaf stage or in the three-leaf stage. The following concentrations of active ingredient are used per batch of 4 plants: 200; 60; 20; 6; 2; 0.6; 0.2; 0.06 mg of a.i./liter. This dilution series is prepared in demineralized water immediately prior to application as a foliar spray. To exclude a gas-phase effect of the a.i. in the vicinity, all plants are separated from each other on the side using translucent plastic foils and kept in the dark for one day at 20°-22° C. and a relative humidity of approximately 100%.
# Then, the entire leaf surface area of the plants is uniformly sprayed to drip point with a freshly prepared sporangia suspension (120 000/ml) of a metalaxyl-sensitive strain of Plasmopara viticola. The plants are then kept for 7 days under a 16 hour photoperiod with artificial daylight at 20°-22° C. and a relative humidity of approximately 100%. This is followed by evaluation of the infestation, separating three-leaf and two-leaf stage sprayings. The tables show in each case the average of 4 parallel sprayings.
# Phytophthora palmivora = details: S-enantiomer versus R-enantiomer of metalaxyl; cited from earlier work
# [5] = day 1, mean of duplicate, 1440 min
# [6] = day 3, mean of duplicate, 4320 min
# [7] = day 7, mean of duplicate, 10080 min
# [8] = day 7, single sample, 10080 min
# [9] = day 9, mean of duplicate, 12960 min
# [10] = day 9, single sample, 12960 min
# [11] = day 15, mean of duplicate, 21600 min
# [12] = day 15, single sample, 21600 min
# [13] = day 21, mean of duplicate, 30240 min
# [14] = day 21, single sample, 30240 min
# [15] = day 29, mean of duplicate, 41760 min
# [16] = day 29, single sample, 41760 min
# [17] = day 14, mean of duplicate, 20160 min
# [18] = day 14, single sample, 20160 min
# [19] = three-leaf stage, 0.06 mg of a.i./liter, untreated control 92
# [20] = three-leaf stage, 0.2 mg of a.i./liter, untreated control 92
# [21] = three-leaf stage, 0.6 mg of a.i./liter, untreated control 92
# [22] = three-leaf stage, 2 mg of a.i./liter, untreated control 92
# [23] = three-leaf stage, 6 mg of a.i./liter, untreated control 92
# [24] = three-leaf stage, 20 mg of a.i./liter, untreated control 92
# [25] = three-leaf stage, 60 mg of a.i./liter, untreated control 92
# [26] = three-leaf stage, 200 mg of a.i./liter, untreated control 92
# [27] = two-leaf stage, 0.06 mg of a.i./liter, untreated control 96
# [28] = two-leaf stage, 0.2 mg of a.i./liter, untreated control 96
# [29] = two-leaf stage, 0.6 mg of a.i./liter, untreated control 96
# [30] = two-leaf stage, 2 mg of a.i./liter, untreated control 96
# [31] = two-leaf stage, 6 mg of a.i./liter, untreated control 96
# [32] = two-leaf stage, 20 mg of a.i./liter, untreated control 96
# [33] = two-leaf stage, 60 mg of a.i./liter, untreated control 96
# [34] = two-leaf stage, 200 mg of a.i./liter, untreated control 96
smiles,measurement,setting,value
"COC(=O)C(C)N(C(=O)Cc1ccccc1)c1c(C)cccc1C (racemic) [Benalaxyl, N-(2,6-dimethylphenyl)-N-(phenylacetyl)-DL-alanine methyl ester]",DT-50 (hydrolytic half-life),[1]; pH9.25,86 days
"COC(=O)C(C)N(C(=O)c1ccco1)c1c(C)cccc1C (racemic) [Furalaxyl, N-(2,6-dimethylphenyl)-N-(2-furanylcarbonyl)-DL-alanine methyl ester]",DT-50 (hydrolytic half-life),"[1]; 20° C., pH1",> 200 days
same,DT-50 (hydrolytic half-life),"[1]; 20° C., pH9",> 200 days
"COCC(=O)N(c1c(C)cccc1C)C(C)C(=O)OC (racemic) [racemic metalaxyl, N-(2,6-dimethylphenyl)-N-(methoxyacetyl)-DL-alanine methyl ester]",DT-50 (hydrolytic half-life),"[1]; 20° C., pH1",> 200 days
same,DT-50 (hydrolytic half-life),"[1]; 20° C., pH9",115 days
same,"Rate of degradation (% of applied), mean","[2]; day 0, mean of duplicate",97.78 % of applied
same,Rate of degradation (% of applied),"[2]; day 0, single sample",98.00 % of applied and 97.56 % of applied
same,"Rate of degradation (% of applied), mean",[2]; [5],87.82 % of applied
same,Rate of degradation (% of applied),"[2]; day 1, single sample, 1440 min",87.75 % of applied and 87.88 % of applied
same,"Rate of degradation (% of applied), mean",[2]; [6],80.01 % of applied
same,Rate of degradation (% of applied),"[2]; day 3, single sample, 4320 min",80.32 % of applied and 79.69 % of applied
same,"Rate of degradation (% of applied), mean",[2]; [7],65.01 % of applied
same,Rate of degradation (% of applied),[2]; [8],65.41 % of applied and 64.60 % of applied
same,"Rate of degradation (% of applied), mean",[2]; [9],56.26 % of applied
same,Rate of degradation (% of applied),[2]; [10],55.84 % of applied and 56.68 % of applied
same,"Rate of degradation (% of applied), mean",[2]; [11],42.54 % of applied
same,Rate of degradation (% of applied),[2]; [12],43.49 % of applied and 41.58 % of applied
same,"Rate of degradation (% of applied), mean",[2]; [13],31.99 % of applied
same,Rate of degradation (% of applied),[2]; [14],30.77 % of applied and 33.21 % of applied
same,"Rate of degradation (% of applied), mean",[2]; [15],28.49 % of applied
same,Rate of degradation (% of applied),[2]; [16],28.70 % of applied and 28.28 % of applied
same,"degradation equation Ct, pre-exponential factor",[2],93.67
same,"degradation equation Ct, rate constant in exponent",[2],0.05006
same,DT-50 (50% degradation),[2],13.9 days
same,DT-90 (90% degradation),[2],46.0 days
same,Compound remaining in soil (% of applied),"[3]; day 0, mean of duplicate",90.39 % of applied
same,Compound remaining in soil (% of applied),"[3]; day 0, single sample",90.41 % of applied and 90.36 % of applied
same,Compound remaining in soil (% of applied),[3]; [7],46.23 % of applied
same,Compound remaining in soil (% of applied),[3]; [8],47.28 % of applied and 45.17 % of applied
same,Compound remaining in soil (% of applied),[3]; [17],35.71 % of applied
same,Compound remaining in soil (% of applied),[3]; [18],35.88 % of applied and 35.54 % of applied
same,Compound remaining in soil (% of applied),[3]; [13],29.20 % of applied
same,Compound remaining in soil (% of applied),[3]; [14],29.34 % of applied and 29.06 % of applied
same,"degradation equation Ct, pre-exponential factor",[3],86.66
same,DT-50 (50% degradation),[3],10.8 days
same,DT-90 (90% degradation),[3],35.7 days
same,Foliar infestation,[4]; [19],92%
same,Foliar infestation,[4]; [20],90%
same,Foliar infestation,[4]; [21],96%
same,Foliar infestation,[4]; [22],80%
same,activity,"[4]; three-leaf stage, 6 mg of a.i./liter (or less)",virtually no activity
same,Foliar infestation,[4]; [23],85%
same,Foliar infestation,[4]; [24],27%
same,activity,"[4]; three-leaf stage, 20 mg/liter",a more clear-cut activity is only discernible
same,Foliar infestation,[4]; [25],0%
same,Foliar infestation,[4]; [26],0%
same,Foliar infestation,[4]; [27],96%
same,Foliar infestation,[4]; [28],97%
same,Foliar infestation,[4]; [29],100%
same,Foliar infestation,[4]; [30],87%
same,Foliar infestation,[4]; [31],76%
same,Foliar infestation,[4]; [32],38%
same,Foliar infestation,[4]; [33],0%
same,Foliar infestation,[4]; [34],0%
same,effect for practical purposes,"[4]; two-leaf stage, below 20 mg of a.i./liter",without effect for practical purposes
same,action against foliar infestation,"[4]; two-leaf stage, below 60 mg of a.i./liter",does not result in a clear-cut action against foliar infestation
COCC(=O)N(c1c(C)cccc1C)[C@H](C)C(=O)OC [R-metalaxyl],"Rate of degradation (% of applied), mean","[2]; day 0, mean of duplicate",100.02 % of applied
same,Rate of degradation (% of applied),"[2]; day 0, single sample",100.32 % of applied and 99.72 % of applied
same,"Rate of degradation (% of applied), mean",[2]; [5],89.64 % of applied
same,Rate of degradation (% of applied),"[2]; day 1, single sample, 1440 min",89.16 % of applied and 90.13 % of applied
same,"Rate of degradation (% of applied), mean",[2]; [6],75.48 % of applied
same,Rate of degradation (% of applied),"[2]; day 3, single sample, 4320 min",76.96 % of applied and 74.01 % of applied
same,"Rate of degradation (% of applied), mean",[2]; [7],52.59 % of applied
same,Rate of degradation (% of applied),[2]; [8],52.59 % of applied
same,"Rate of degradation (% of applied), mean",[2]; [9],46.84 % of applied
same,Rate of degradation (% of applied),[2]; [10],47.22 % of applied and 46.45 % of applied
same,"Rate of degradation (% of applied), mean",[2]; [11],27.33 % of applied
same,Rate of degradation (% of applied),[2]; [12],24.77 % of applied and 29.89 % of applied
same,"Rate of degradation (% of applied), mean",[2]; [13],17.09 % of applied
same,Rate of degradation (% of applied),[2]; [14],17.12 % of applied and 17.05 % of applied
same,"Rate of degradation (% of applied), mean",[2]; [15],8.72 % of applied
same,Rate of degradation (% of applied),[2]; [16],8.82 % of applied and 8.62 % of applied
same,"degradation equation Ct, pre-exponential factor",[2],98.54
same,"degradation equation Ct, rate constant in exponent",[2],0.08548
same,DT-50 (50% degradation),[2],8.1 days
same,DT-90 (90% degradation),[2],26.9 days
same,Compound remaining in soil (% of applied),"[3]; day 0, mean of duplicate",96.28 % of applied
same,Compound remaining in soil (% of applied),"[3]; day 0, single sample",93.61 % of applied and 98.94 % of applied
same,Compound remaining in soil (% of applied),[3]; [7],25.23 % of applied
same,Compound remaining in soil (% of applied),[3]; [8],24.74 % of applied and 25.7 % of applied
same,Compound remaining in soil (% of applied),[3]; [17],9.85 % of applied
same,Compound remaining in soil (% of applied),[3]; [18],9.07 % of applied and 10.62 % of applied
same,Compound remaining in soil (% of applied),[3]; [13],7.69 % of applied
same,Compound remaining in soil (% of applied),[3]; [14],7.57 % of applied and 7.82 % of applied
same,"degradation equation Ct, pre-exponential factor",[3],95.9
same,DT-50 (50% degradation),[3],3.9 days
same,DT-90 (90% degradation),[3],13.0 days
same,Foliar infestation,[4]; [19],93%
same,Foliar infestation,[4]; [20],78%
same,Foliar infestation,[4]; [21],0%
same,Foliar infestation,[4]; [22],0%
same,Foliar infestation,[4]; [23],0%
same,Foliar infestation,[4]; [24],0%
same,Foliar infestation,[4]; [25],0%
same,Foliar infestation,[4]; [26],0%
same,activity relative to racemic metalaxyl,"[4]; three-leaf stage, up to 0.6 mg of a.i./liter",approximately 100 times
same,Foliar infestation,[4]; [27],92%
same,Foliar infestation,[4]; [28],97%
same,Foliar infestation,[4]; [29],78%
same,Foliar infestation,[4]; [30],4%
same,Foliar infestation,[4]; [31],0%
same,Foliar infestation,[4]; [32],0%
same,Foliar infestation,[4]; [33],0%
same,Foliar infestation,[4]; [34],0%
same,activity relative to racemic metalaxyl,"[4]; two-leaf stage, up to dilutions of 2 mg of a.i./liter",up to 30 times
COCC(=O)N(c1c(C)cccc1C)[C@@H](C)C(=O)OC [S-enantiomer of metalaxyl],ED50 inhibitory value in nucleic acid synthesis relative to R-enantiomer (times more unfavorable),Phytophthora palmivora,approximately fifty
